Measurements: patent publication US20250213560A1, “NITROGEN-CONTAINING HETEROCYCLIC COMPOUNDS HAVING PHENYL GROUP AND USES THEREOF” (BNH RESEARCH CO., LTD., priority 2022, published 2025)

Tests used:
293T cells = experiment: Cytotoxicity test (CCK-8 cell viability) in 293T cells; format: cell-based, human; settings: 293T cell line
Experimental: Human undifferentiated neuroblastoma cell line SH-SY5Y and human embryonic kidney cell line (HEK)-293T were purchased from Korean Cell Line Bank (Korea) and Takara (Japan), respectively. Cells were grown in HyClone Minimal Essential Medium (MEM) and Dulbecco's Modified Eagle Medium (DMEM), respectively, supplemented with 10% (v/v) fetal bovine serum (FBS), penicillin (100 U/mL), and streptomycin ([…]). Cells were maintained in a humidified atmosphere of 95% air and 5% CO2 at 37° C. Cells were passaged 10 times at maximum. Cells were dissociated using 0.05% trypsin-EDTA solution and the cells were seeded in new culture dishes for maintenance.
To examine the cytotoxicity of compounds described herein in human cell lines, SH-SY5Y and 293T cells were used. Approximately 8,000 cells (for 293T) and 15,000 cells (for SH-SY5Y) were plated per well of a 96-well plate (SPL Life Sciences Co., Ltd., Pocheon, Korea). After incubating at 37° C. for 24 hours in a humidified atmosphere containing 5% CO2, the culture medium was replaced by a series of concentrations of test compounds diluted in the corresponding culture medium.
The time of co-incubation was 24 hours and six replicates were made for each measurement. Finally, 10 μL of CCK-8 reagent (Dojindo Laboratories, Rockville, MD) was added to each well, and after incubation at 37° C. for 3 minutes, the OD at 450 nm was measured using a multifunction microplate reader (Tecan Infinite M200 Pro). These measurements were compared to that of a control and expressed as a percentage of the control to calculate cell viability. The IC50 value was calculated using SPSS software. To do this, the absorbance of the blank wells with only growth medium is subtracted from the values or the wells with cells. The readout value of background (vehicle) was set as a 100% viability, and then the percent viability for each test solution was calculated.
The data was presented as the mean value and standard error of the mean (S.E.M.). Statistical analysis was performed with the one-way ANOVA with Tukey's post hoc test (GraphPad Prism 5 software package, version 5.02, GraphPad Software Inc. USA). Significance was accepted at p<0.05.
The cytotoxicity of the compound was evaluated by treating cells with BnH12003 and measuring cell viability.
By treating cells with various BnH12 series compounds and measuring cell viability using the experimental procedure described in Example 2, the cytotoxicity of the compounds was evaluated.

GluN2B = GluN2B protein expression by Western blot in primary cortical neuron cells; format: cell-based, mouse
Experimental: Meanwhile, primary cortical neuron cells were isolated from cerebral cortices of 18-day-old mouse fetuses, incubated in prep media (composition (mM): NaCl 107.5, NaH2PO4 1, NaHCO333.5, glucose 11, HEPS 1%, penicillin-streptomycin 1%) containing 0.25% trypsin and DNasel for 30 minutes, dissociated into single cells, and seeded. Primary cortical neuron cells were grown in Neurobasal medium supplemented with 1% (v/v) B27, 1% penicillin (100 U/mL), streptomycin ([…]), and 1% Glutamax. Cells were maintained in a humidified atmosphere of 95% air and 5% CO2 at 37° C. Drug efficacy was evaluated after culturing primary cortical neuron cells for 14 days.
The amount of GluN2B reacted with the compound of the present disclosure was measured using Western blot. The fetal cerebral cortex was extracted from mice at 17 days of gestation, dissociated into single cells, cultured for 13 days, and treated with BnH drugs for 24 hours. The drug-treated cells were subjected to protein lysate preparation using RIPA protein lysis buffer containing protease and phosphatase inhibitors. The protein concentration was determined using a BCA protein assay kit (Pierce Biotechnology) using bovine serum albumin as a standard. Equal amounts of protein (20 μg per lane) were separated by electrophoresis on SDS-polyacrylamide gels at 90 V for 2 hours, then transferred from the SDS-polyacrylamide gel to PVDF membrane at 100 V for 1 hour. Then, primary reaction with GluN2B antibody (ab65783, Abcam) was performed at 4° C. for 1 day, washed three times at 10-minutes intervals with 1×PBT, and secondary reaction was performed with anti-mouse antibody (sc-2357, Santa Cruz) for 1 hour, followed by washing three times at 10-minutes intervals with 1×PBT. Western blotting was performed as described above to confirm GluN2B protein expression. Subsequently, each blot was re-probed using anti-β-actin antibody (sc-47778, Santa Cruz). Housekeeping protein B-actin was detected as a normalization control.
The increase and decrease of BnH12 series were confirmed by setting the vehicle to 1 (N for each group was 3 or more).
Using the experimental procedure described in Example 3, it was determined whether various BnH12 series compounds increase GluN2B expression, and the results are shown in Table 5. These in vitro experimental results are expressed as relative values to the group (vehicle) that was not treated with the compound, with the effect of the group set to 1.

Compound | Cell viability test results (CCK) 10 uM (293T cells) [%<] | Cell viability test results (CCK) 100 uM (293T cells) [%<] | GluN2B expression effect (in words) (GluN2B; compared to vehicle / other compounds, Table 5) | Western blot results Mean (GluN2B expression) (GluN2B; relative value, vehicle set to 1, primary cortical neurons treated for 24 hours)
6-Ethyl-1-(2-(4-(pyrimidin-5-yl)phenyl) acetyl) piperidine-3-carboxylic acid [BnH12097] | 90 | 85 | excellent effects | 2.625
C[C@H]1CC[C@@H](C(=O)O)CN1C(=O)Cc1ccc(-c2ccc(F)cc2)cc1 [BnH12002, (3R,6S)-1-(2-(4′-fluoro-8 1,l′-biphenyl9-4-yl)acetyl)-6-methylpiperidine-3-carboxylic acid] | 90 | 95 |  | 
O=C(NO)[C@H]1CCCN1C(=O)Cc1ccc(-c2cncnc2)cc1 [BnH12015, (R)-N-hydroxy-1-(2-(4-(pyrimidin-5-yl)phenyl)acetyl) pyrrolidine-2-carboxamide] | 99 | 99 |  | 
C[C@H]1CC[C@@H](C(=O)O)CN1C(=O)Cc1ccc2nccnc2c1 [BnH12036, (3R,6S)-6-methyl-1-(2-(quinoxalin-6-yl)acetyl) piperidine-3-carboxylic acid] | 95 | 95 |  | 
C[C@H]1CC[C@@H](C(=O)O)CN1C(=O)Cc1ccc2c(c1)OCCO2 [BnH12037] | 99 | 99 |  | 
C[C@H]1CC[C@@H](C(=O)O)CN1C(=O)Cc1ccc(-c2ccccc2)cc1 [BnH12042] | 95 | 90 |  | 
C[C@H]1CC[C@@H](C(=O)O)CN1C(=O)Cc1ccc(-c2ccncc2)cc1 [BnH12043, (3R,6S)-6-methyl-1-(2-(4-(pyridin-4-yl)phenyl)acetyl) piperidine-3-carboxylic acid] | 99 | 99 |  | 
C[C@H]1CC[C@@H](C(=O)O)CN1C(=O)Cc1ccc(-c2ccccn2)cc1 [BnH12044, (3R,6S)-6-methyl-1-(2-(4-(pyridin-2-yl)phenyl)acetyl) piperidine-3-carboxylic acid] | 80 | 75 |  | 
C[C@H]1CC[C@@H](C(=O)O)CN1C(=O)Cc1ccc(-c2ncc(F)cn2)cc1 [BnH12049, (3R,6S)-1-(2-(4-(5-fluoropyrimidin-2-yl)phenyl)acetyl)-6-methylpiperidine-3-carboxylic acid] | 90 | 85 |  | 
C[C@H]1CC[C@@H](C(=O)O)CN1C(=O)Cc1ccc(-c2cnc(C3CC3)nc2)cc1 [BnH12052, (3R,6S)-1-(2-(4-(2-cyclopropylpyrimidin-5-yl)phenyl)acetyl)-6-methylpiperidine-3-carboxylic acid] | 80 | 75 |  | 
C[C@H]1CC[C@@H](C(=O)O)CN1C(=O)Cc1ccc(-c2ccncn2)cc1 [BnH12054, (3R,6S)-6-methyl-1-(2-(4-(pyrimidin-4-yl)phenyl)acetyl) piperidine-3-carboxylic acid] | 99 | 99 |  | 
C[C@H]1CC[C@@H](C(=O)O)CN1C(=O)Cc1ccc(-c2cccs2)cc1 [BnH12055, (3R,6S)-6-methyl-1-(2-(4-(thiophen-2-yl)phenyl)acetyl) piperidine-3-carboxylic acid] | 90 | 60 |  | 
C[C@H]1CC[C@@H](C(=O)O)CN1C(=O)Cc1ccc(-c2ccco2)cc1 [BnH12056, (3R,6S)-1-(2-(4-(furan-2-yl)phenyl)acetyl)-6-methylpiperidine-3-carboxylic acid] | 95 | 90 |  | 
C[C@H]1CC[C@@H](C(N)=O)CN1C(=O)Cc1ccc(-c2ncc(F)cn2)cc1 [BnH12059, (3R,6S)-1-(2-(4-(5-fluoropyrimidin-2-yl)phenyl)acetyl)-6-methylpiperidine-3-carboxamide] | 90 | 70 |  | 
C[C@H]1CC[C@@H](C(=O)O)CN1C(=O)Cc1ccc(-c2ccc([N+](=O)[O-])cc2)cc1 [BnH12077, (3R,6S)-6-methyl-1-(2-(4'-nitro-[1,1'-biphenyl]-4-yl)acetyl)piperidine-3-carboxylic acid] | 99 | 60 |  | 
C[C@H]1CC[C@@H](C(=O)O)CN1C(=O)c1ccc(-c2cccnc2)cc1 [BnH12080, (3R,6S)-6-methyl-1-(4-(pyridin-3-yl)benzoyl) piperidine-3-carboxylic acid] | 85 | 85 |  | 
COc1ccc(-c2ccc(CC(=O)N3C[C@H](C(=O)O)CC[C@@H]3C)cc2)cn1 [BnH12081, (3R,6S)-1-(2-(4-(6-methoxypyridin-3-yl)phenyl)acetyl)-6-methylpiperidine-3-carboxylic acid] | 85 | 70 |  | 
C[C@H]1CC[C@@H](C(=O)O)CN1C(=O)Cc1ccc(-c2ccc(C3CC3)nc2)cc1 [BnH12082, (3R,6S)-1-(2-(4-(6-cyclopropylpyridin-3-yl)phenyl)acetyl)-6-methylpiperidine-3-carboxylic acid] | 90 | 90 |  | 
C[C@H]1CC[C@@H](C(=O)O)CN1C(=O)Cc1ccc(-c2ccc(C(F)(F)F)nc2)cc1 [BnH12083, (3R,6S)-6-methyl-1-(2-(4-(6-(trifluoromethyl)pyridin-3-yl)phenyl)acetyl) piperidine-3-carboxylic acid] | 95 | 75 |  | 
Cc1ccc(-c2ccc(CC(=O)N3C[C@H](C(=O)O)CC[C@@H]3C)cc2)cn1 [BnH12084, (3R,6S)-6-methyl-1-(2-(4-(6-methylpyridin-3-yl)phenyl)acetyl) piperidine-3-carboxylic acid] | 80 | 70 |  | 
C[C@H]1CC[C@@H](C(=O)O)CN1C(=O)Cc1ccc(-c2ccc(-c3ccccc3)nc2)cc1 [BnH12087, (3R,6S)-6-methyl-1-(2-(4-(6-phenylpyridin-3-yl)phenyl)acetyl) piperidine-3-carboxylic acid] | 85 | 45 |  | 
